Like-named read-outs stand apart in the source and are kept apart here.
What was measured:
[1] = tested on: spleen cells; format: cell-based, Balb/c mice; settings: Experiment 2, 96 hours culture
Description: (§1) For proliferation assays and in vitro cytokine analysis, spleen cells were obtained from mice at the indicated time points. Single cell suspensions were prepared from pools of 3-5 mice as indicated in Results. For proliferation and cytokine analysis, cells were suspended in round bottom 96 well culture plates precoated overnight with HIV peptide antigens, control proteins, or RPMI-10 only. Spleen cells were added at 5×10^5 cells/well using culture medium having 2× supplements. Cell culture supernatants were harvested from triplicate wells for cytokine analysis three or six days after culture initiation. Immediately after supernatant harvest, cultures were pulsed with ^3H-thymidine for 18-24 hours, and harvested to quantify cell proliferation.
Groups of five Balb/c female mice were immunized with 25 μg T1SP10MN(A) (−Cys) and the indicated adjuvants on days 0 and 28. Spleen cells were established in culture on day 56, and harvested for measurement of ^3H-thymidine incorporation 96 hours later. Mice were immunized with 50 ng IL-12, […], 50 μg MPL™ in an aqueous formulation, or as a stable emulsion with 2% SE. Data are presented as the delta cpm values as compared to proliferation values measured from cells grown in culture without stimulation.
Cells were cultured for a total of 96 hours. ^3H-thymidine was added to cultures for the last 18 hours. Data are presented as a proliferation index normalized to cells stimulated in culture with ConA ([mean cpm Antigen/mean cpm ConA]−[mean cpm medium/mean cpm ConA])×100. As a result, cells cultured in medium have a background proliferation of 0. Proliferation values less than cells grown in culture unstimulated are in parentheses.

[2] = tested on: spleen cells; test: Secretion of IL-4 by spleen cells (ELISA); format: cell-based, Balb/c mice; settings: Experiment 2, 96 hours culture, after subtraction of lysozyme value
Description: as §1
For cytokine analysis, cell culture supernatants were added to wells coated with BVD6-11B11 (for anti-IL4), or R4-6A2 (for interferon-gamma). After incubation and washing, wells were developed using biotin-labeled BVD6-24G2 (for IL4) or XMG 1.2 (for interferon-gamma). The concentration of cytokines was determined using a standard curve prepared from recombinant murine interferon-gamma or interleukin-4. All cytokine reagents were purchased from Pharmingen (San Diego, Calif.).
Interleukin-4 secreted into culture by spleen cells stimulated with 25 μg T1SP10MN(A) (−Cys) was measured. Spleen cells were harvested from pools of five Balb/c female mice and cultured with the indicated antigenic stimuli (50 ng IL-12, 10 μg GM-CSF, 50 μg MPL™ as indicated) for either three or six days. Interleukin-4 levels were determined by ELISA, and compared to a standard having a known concentration. Blank wells indicate that the assay could not detect Interleukin-4 from those culture conditions. The lower limit of detection sensitivity was 22 Units/ml.
Cells were cultured for a total of 96 hours. Cell culture supernatants were analyzed for IL-4 by ELISA. All values were after subtraction from those determined from supernatants of cells stimulated with 10 μg of an irrelevant protein (lysozyme). Results which were below the limit of detection, after subtraction from stimulation induced with lysozyme are indicated as “bd”. The adjuvants were 40 ng IL-12, 10 μg GM-CSF and 50 μg MPL™.

[3] = tested on: Neisseria gonorrhoeae Porin B protein; test: Reciprocal anti-Porin B protein serum IgG endpoint subclass titers; format: in vivo, Swiss-Webster mice; settings: for Reciprocal anti-Porin B Protein IgG1 endpoint titer, Week 3 / Reciprocal anti-Porin B Protein IgG1 endpoint titer, Week 6 / Reciprocal anti-Porin B Protein IgG2a endpoint titer, Week 3 / Reciprocal anti-Porin B Protein IgG2a endpoint titer, Week 6 / Reciprocal anti-Porin B Protein IgG endpoint titer, Week 3 / Reciprocal anti-Porin B Protein IgG endpoint titer, Week 6: 1 μg Porin B s.c. week 0 and 4
Description: (§2) Outbred Swiss-Webster mice were divided into five groups of ten mice each. Each group received 1 μg of recombinant Porin B protein (from strain FA1090 with 16 amino acids at the amino-terminus from a phage, followed by the mature form of the Porin B protein). […] Mice were immunized subcutaneously in the rump with a total volume of 0.2 ml, divided equally into each of two sites at the base of the tail/rump. Immunizations were administered at week 0 and week 4.
Mice were bled the day prior to each immunization, and at 13 days after the final immunization. Serum was analyzed from pools from mice within groups. […] All day 0 pre-immunization titers were less than 50.
Individual week 6 IgG titer geometric means against the recombinant Porin B protein were also determined.
as §2, with “six” for “five”, “five” for “ten”, “ml.” for “ml, divided equally into each of two sites at the base of the tail/rump.”
(§3) Mice were bled the day prior to each immunization, and at 13 days after the final immunization. Serum was analyzed from pools from mice within groups. […] All day 0 pre-immunization titers were less than 50. The starting dilution for vaginal lavage analysis was 1/5.

[4] = tested on: Neisseria gonorrhoeae Porin B protein; test: Vaginal wash anti-Porin B protein IgG and IgA titers; format: in vivo, Swiss-Webster mice; settings: Experiment 11; Swiss-Webster; starting dilution 1/5
Description: as §2, with “six” for “five”, “five” for “ten”, “ml.” for “ml, divided equally into each of two sites at the base of the tail/rump.”
as §3

[5] = tested on: spleen cells; test: Spleen cell proliferation in response to RSV F protein; format: cell-based, Balb/c mice; settings: Experiment 12; spleen cells 14 days post-secondary immunization; 2.5 μg/ml RSV F protein, 96 hours; normalized to ConA
Description: Spleen cells were harvested at 14 days post-secondary immunization and were established in culture at a density of 5×10^5 cells. Cells were cultured for a total of 96 hours. ^3H-thymidine was added to cultures for the last 18 hours. Data are presented as a proliferation index normalized to cells stimulated in culture with ConA ([mean cpm Antigen/mean cpm ConA]−[mean cpm medium/mean cpm ConA])×100. As a result, cells cultured in medium have a background proliferation of 0.

[6] = tested on: RSV F protein; settings: pooled serum n=5 Balb/c
[7] = values in parentheses are less than unstimulated cells
[8] = Experiment 10, pooled serum n=10 Swiss-Webster
[9] = Experiment 11, pooled serum n=5 Swiss-Webster
[10] = Experiment 12, 3 μg F protein i.m. week 0 and 4
[11] = Experiment 13, F protein week 0 and 4
[12] = Experiment 14, 3 μg F protein s.c. week 0 and 4

RSV F protein, sequence (P03420 137-574): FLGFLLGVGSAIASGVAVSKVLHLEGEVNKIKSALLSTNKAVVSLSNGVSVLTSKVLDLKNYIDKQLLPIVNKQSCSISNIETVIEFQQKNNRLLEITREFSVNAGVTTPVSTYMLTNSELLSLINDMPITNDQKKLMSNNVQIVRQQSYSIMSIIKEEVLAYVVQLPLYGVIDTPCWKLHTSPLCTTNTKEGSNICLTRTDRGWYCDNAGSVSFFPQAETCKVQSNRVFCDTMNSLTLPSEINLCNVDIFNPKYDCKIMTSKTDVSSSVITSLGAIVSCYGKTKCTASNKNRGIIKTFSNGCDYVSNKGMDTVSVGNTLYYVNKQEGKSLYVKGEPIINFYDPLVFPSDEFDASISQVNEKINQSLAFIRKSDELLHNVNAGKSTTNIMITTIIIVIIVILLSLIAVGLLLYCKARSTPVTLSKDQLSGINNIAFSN

3-O-deacylated monophosphoryl lipid A [MPL ™]
Spleen cell proliferation index normalized to ConA, Con A 5 μg/ml [1]: 99.2 | Spleen cell proliferation index normalized to ConA, HIV Peptide 1.1 μg/ml [1, 7]: 0.5 | Spleen cell proliferation index normalized to ConA, HIV Peptide 3.3 μg/ml [1, 7]: 1.4 | Spleen cell proliferation index normalized to ConA, HIV Peptide 10 μg/ml [1, 7]: 1.0 | Spleen cell proliferation index normalized to ConA, Lysozyme 10 μg/ml [1, 7]: 0.4 | Secretion of IL-4, Con A 5 μg/ml [2]: 286 pg/mL | Secretion of IL-4, HIV Peptide 1.1 μg/ml ([2]; bd = below limit of detection): 17 pg/mL | Secretion of IL-4, HIV Peptide 3.3 μg/ml ([2]; bd = below limit of detection): bd | Secretion of IL-4, HIV Peptide 10 μg/ml ([2]; bd = below limit of detection): 5 pg/mL | Reciprocal anti-Porin B Protein IgG1 endpoint titer, Week 3 [3, 8]: 171 | Reciprocal anti-Porin B Protein IgG1 endpoint titer, Week 6 [3, 8]: 23,465 | Reciprocal anti-Porin B Protein IgG2a endpoint titer, Week 3 [3, 8]: 318 | Reciprocal anti-Porin B Protein IgG2a endpoint titer, Week 6 [3, 8]: 20,422 | Reciprocal anti-Porin B Protein IgG endpoint titer, Week 3 [3, 8]: 3,381 | Reciprocal anti-Porin B Protein IgG endpoint titer, Week 6 [3, 8]: 431,529 | Individual IgG titers against recombinant Porin B protein, Geometric Mean ([3]; Experiment 10, week 6, Swiss-Webster): 217,114 | Reciprocal anti-Porin B Protein IgG1 endpoint titer, Week 3 [3, 9]: 500 | Reciprocal anti-Porin B Protein IgG1 endpoint titer, Week 6 [3, 9]: 76,640 | Reciprocal anti-Porin B Protein IgG2a endpoint titer, Week 3 [3, 9]: 1,925 | Reciprocal anti-Porin B Protein IgG2a endpoint titer, Week 6 [3, 9]: 60,910 | Reciprocal anti-Porin B Protein IgG endpoint titer, Week 3 [3, 9]: 5,656 | Reciprocal anti-Porin B Protein IgG endpoint titer, Week 6 [3, 9]: 265,127 | Vaginal Wash IgA titer, anti-Porin B Protein [4]: 5 | Vaginal Wash IgG titer, anti-Porin B Protein [4]: 54 | Normalized Proliferation Index [5]: 0.4 | Reciprocal anti-RSV F Protein IgG1 endpoint titer, Week 3 [6, 10]: 28,134 | Reciprocal anti-RSV F Protein IgG1 endpoint titer, Week 6 [6, 10]: 900,863 | Reciprocal anti-RSV F Protein IgG2a endpoint titer, Week 3 [6, 10]: 11,882 | Reciprocal anti-RSV F Protein IgG2a endpoint titer, Week 6 [6, 10]: 1,057,108 | Reciprocal anti-RSV F Protein IgG endpoint titer, Week 3 [6, 10]: 124,197 | Reciprocal anti-RSV F Protein IgG endpoint titer, Week 6 [6, 10]: 3,310,838 | Reciprocal anti-RSV F Protein IgG1 endpoint titer, Week 3 [6, 11]: 21,930 | Reciprocal anti-RSV F Protein IgG1 endpoint titer, Week 6 [6, 11]: 1,384,927 | Reciprocal anti-RSV F Protein IgG2a endpoint titer, Week 3 [6, 11]: 61,253 | Reciprocal anti-RSV F Protein IgG2a endpoint titer, Week 6 [6, 11]: 955,685 | Reciprocal anti-RSV F Protein IgG endpoint titer, Week 3 [6, 11]: 104,702 | Reciprocal anti-RSV F Protein IgG endpoint titer, Week 6 [6, 11]: 6,153,833 | Reciprocal anti-RSV F Protein IgG1 endpoint titer, Week 3 [6, 12]: 55,767 | Reciprocal anti-RSV F Protein IgG1 endpoint titer, Week 6 [6, 12]: 402,128 | Reciprocal anti-RSV F Protein IgG2a endpoint titer, Week 3 [6, 12]: 8,397 | Reciprocal anti-RSV F Protein IgG2a endpoint titer, Week 6 [6, 12]: 170,252 | Reciprocal anti-RSV F Protein IgG endpoint titer, Week 3 [6, 12]: 26,179 | Reciprocal anti-RSV F Protein IgG endpoint titer, Week 6 [6, 12]: 3,467,097
